According to PubChem BioAssay (NCI):
Several values for one entry are separate records, joined by “and”; a condition that tells them apart may be missing. Identical values can stand only once.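 Grown in 96-well plates, cells were treated for 48 hours with each compound at five concentrations. Insufficient inhibition: endpoint recorded as highest concentration tested. GI50: concentration for 50% inhibition of growth. TGI: concentration producing complete growth inhibition.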 Where a SMILES comes first, the peptide text is derived from it.

Legend:
Assay in all cases: NCI-60 cell line screen, 48 h
KM12 colon = test system: KM12 colon
DU-145 prostate = test system: DU-145 prostate
OVCAR-5 ovarian = test system: OVCAR-5 ovarian
A549 NSCLC = test system: A549 NSCLC
UACC-62 melanoma = test system: UACC-62 melanoma
HCT-116 colon = test system: HCT-116 colon
SW-620 colon = test system: SW-620 colon
HS 578T breast = test system: HS 578T breast
SNB-75 CNS = test system: SNB-75 CNS
SK-MEL-2 melanoma = test system: SK-MEL-2 melanoma

Cc1ccc(Nc2cn(COCc3ccccc3)c(=O)[nH]c2=O)cc1
TGI (KM12 colon): > 100 µM
TGI (DU-145 prostate): > 100 µM
TGI (OVCAR-5 ovarian): > 100 µM
TGI (A549 NSCLC): > 100 µM
TGI (UACC-62 melanoma): > 100 µM
TGI (HCT-116 colon): > 100 µM
TGI (SW-620 colon): > 100 µM
TGI (HS 578T breast): > 100 µM

CSc1nc(C)c(CCCl)c(Cl)n1
TGI (DU-145 prostate): > 100 µM
TGI (A549 NSCLC): > 100 µM
TGI (SNB-75 CNS): > 100 µM
TGI (UACC-62 melanoma): > 100 µM
TGI (HCT-116 colon): > 100 µM
TGI (SW-620 colon): > 100 µM
TGI (HS 578T breast): > 100 µM

CN(C)Cc1[nH]c2ccccc2c1C(=O)c1ccccc1
TGI (KM12 colon): > 100 µM
TGI (OVCAR-5 ovarian): > 100 µM
TGI (A549 NSCLC): > 100 µM
TGI (SNB-75 CNS): 74.9 µM
TGI (UACC-62 melanoma): > 100 µM
TGI (SK-MEL-2 melanoma): > 100 µM
TGI (HCT-116 colon): > 100 µM
TGI (SW-620 colon): > 100 µM

O=C1c2ccccc2C(=O)c2c(O)c(NCCNCCO)cc(O)c21
TGI (KM12 colon): 15.7 µM
TGI (OVCAR-5 ovarian): 21.8 µM
TGI (A549 NSCLC): 13.5 µM
TGI (SNB-75 CNS): 17.9 µM
TGI (UACC-62 melanoma): 23.8 µM
TGI (SK-MEL-2 melanoma): 15.8 µM
TGI (HCT-116 colon): 11.9 µM
TGI (SW-620 colon): 12 µM

CC(=O)NC(CO)C(=O)NC(Cc1ccc(O)cc1)C(=O)NCC(N)=O (stereo not drawn) (Ac-Ser-Tyr-Gly-NH2; configuration not given here)
TGI (KM12 colon): > 100 µM
TGI (DU-145 prostate): > 100 µM
TGI (OVCAR-5 ovarian): > 100 µM
TGI (A549 NSCLC): > 100 µM
TGI (SNB-75 CNS): > 100 µM
TGI (UACC-62 melanoma): > 100 µM
TGI (SK-MEL-2 melanoma): > 100 µM
TGI (HCT-116 colon): > 100 µM
TGI (SW-620 colon): > 100 µM

N#Cc1c(N2CCOCC2)ncn(-c2ccc(Cl)cc2)c1=O
TGI (KM12 colon): > 100 µM
TGI (DU-145 prostate): > 100 µM
TGI (OVCAR-5 ovarian): > 100 µM
TGI (A549 NSCLC): > 100 µM
TGI (SNB-75 CNS): > 100 µM
TGI (UACC-62 melanoma): > 100 µM
TGI (SK-MEL-2 melanoma): > 100 µM
TGI (HCT-116 colon): > 100 µM
TGI (SW-620 colon): > 100 µM

CCCN(CCC)C(=O)c1c(Cl)c2cccnc2n2c(C)cnc12
TGI (KM12 colon): > 100 µM
TGI (DU-145 prostate): > 100 µM
TGI (OVCAR-5 ovarian): > 100 µM
TGI (A549 NSCLC): > 100 µM
TGI (SNB-75 CNS): > 100 µM
TGI (UACC-62 melanoma): > 100 µM
TGI (HCT-116 colon): > 100 µM
TGI (SW-620 colon): > 100 µM
TGI (HS 578T breast): > 100 µM

Cc1cc(C#N)c(Nc2ccccc2[N+](=O)[O-])s1
TGI (KM12 colon): > 100 µM
TGI (DU-145 prostate): 78.8 µM
TGI (OVCAR-5 ovarian): 62.9 µM
TGI (A549 NSCLC): > 100 µM
TGI (SNB-75 CNS): > 100 µM
TGI (UACC-62 melanoma): > 100 µM
TGI (HCT-116 colon): > 100 µM
TGI (SW-620 colon): > 100 µM

O=C1/C(=C/c2ccc(Cl)cc2)Sc2scc(-c3cccc([N+](=O)[O-])c3)[n+]21
TGI (KM12 colon): 13.1 µM
TGI (DU-145 prostate): > 33.3 µM
TGI (OVCAR-5 ovarian): 51.3 µM
TGI (A549 NSCLC): > 68.5 µM
TGI (SNB-75 CNS): 5.49 µM
TGI (UACC-62 melanoma): 13.5 µM
TGI (SK-MEL-2 melanoma): 29.1 µM
TGI (SW-620 colon): 3.82 µM
TGI (HS 578T breast): 43.6 µM

c1ccc(CSC(SCc2ccccc2)c2ccc3c(c2)OCO3)cc1
TGI (KM12 colon): > 10 µM
TGI (DU-145 prostate): > 10 µM
TGI (A549 NSCLC): > 10 µM
TGI (SNB-75 CNS): > 10 µM
TGI (UACC-62 melanoma): > 10 µM
TGI (SK-MEL-2 melanoma): > 10 µM
TGI (HCT-116 colon): > 10 µM
TGI (SW-620 colon): > 10 µM
TGI (HS 578T breast): > 10 µM

COc1ccc(C2C(Cl)C(=O)N2NC(=O)c2ccccc2O)cc1OC (stereo not given)
TGI (KM12 colon): > 100 µM
TGI (A549 NSCLC): > 100 µM
TGI (UACC-62 melanoma): > 100 µM
TGI (SK-MEL-2 melanoma): > 100 µM
TGI (HCT-116 colon): > 100 µM

CCOC(=O)Oc1ccc2c(c1)c(=O)c1c(NCCCN(CC)CC)ccc3nnn2c31
TGI (KM12 colon): 19.8 µM
TGI (DU-145 prostate): 17.4 µM
TGI (OVCAR-5 ovarian): 33.5 µM
TGI (A549 NSCLC): 16.9 µM
TGI (UACC-62 melanoma): 29 µM
TGI (SK-MEL-2 melanoma): 30 µM
TGI (HCT-116 colon): 15.8 µM
TGI (SW-620 colon): 16.2 µM
TGI (HS 578T breast): 40.7 µM

CC(C)OP(=O)(OC(C)C)C(Nc1cccc(C(F)(F)F)c1)c1ccccc1 (stereo not given)
TGI (KM12 colon): > 100 µM
TGI (DU-145 prostate): > 100 µM
TGI (OVCAR-5 ovarian): > 100 µM
TGI (A549 NSCLC): > 100 µM
TGI (SNB-75 CNS): > 100 µM
TGI (UACC-62 melanoma): > 100 µM
TGI (SK-MEL-2 melanoma): > 100 µM
TGI (HCT-116 colon): > 100 µM
TGI (HS 578T breast): > 100 µM

COc1cc2c(cc1OCCCCN1CCN(CCCCOc3cc4c(cc3OC)C(=O)N3CCC[C@H]3C=N4)CC1)N=C[C@@H]1CCCN1C2=O
TGI (KM12 colon): 0.204 µM
TGI (DU-145 prostate): > 100 µM
TGI (OVCAR-5 ovarian): 0.163 µM
TGI (A549 NSCLC): > 100 µM
TGI (UACC-62 melanoma): 0.0347 µM
TGI (SK-MEL-2 melanoma): 0.175 µM
TGI (HCT-116 colon): 22.5 µM
TGI (SW-620 colon): > 40 µM
TGI (HS 578T breast): > 100 µM

CC1(C)N=C(Oc2ccccc2)n2nccc2N1
TGI (KM12 colon): > 100 µM
TGI (OVCAR-5 ovarian): > 100 µM
TGI (A549 NSCLC): > 100 µM
TGI (SNB-75 CNS): > 100 µM
TGI (UACC-62 melanoma): > 100 µM
TGI (SK-MEL-2 melanoma): > 100 µM
TGI (HCT-116 colon): > 100 µM
TGI (SW-620 colon): > 100 µM

CC(=O)Oc1cc(S(=O)(=O)Nc2n[nH]c(N)n2)c(S)cc1Cl
TGI (KM12 colon): > 100 µM
TGI (DU-145 prostate): > 100 µM
TGI (OVCAR-5 ovarian): > 100 µM
TGI (A549 NSCLC): > 100 µM
TGI (UACC-62 melanoma): > 100 µM
TGI (SK-MEL-2 melanoma): > 100 µM
TGI (HCT-116 colon): > 100 µM
TGI (SW-620 colon): > 100 µM
TGI (HS 578T breast): > 100 µM

COc1nc(OC)nc(Sc2ccc(Sc3ccc(Sc4nc(OC)nc(OC)n4)cc3)cc2)n1
TGI (KM12 colon): > 100 µM
TGI (OVCAR-5 ovarian): > 100 µM
TGI (A549 NSCLC): > 100 µM
TGI (SNB-75 CNS): > 100 µM
TGI (UACC-62 melanoma): > 100 µM
TGI (SK-MEL-2 melanoma): > 100 µM
TGI (HCT-116 colon): > 100 µM
TGI (SW-620 colon): > 100 µM

N#CCN(Cc1ccccc1)[C@@H]1CCC[C@]1(O)C#Cc1ccc2c(c1)OCO2
TGI (KM12 colon): 35.4 µM
TGI (DU-145 prostate): > 100 µM
TGI (OVCAR-5 ovarian): 33.5 µM
TGI (A549 NSCLC): 34.1 µM
TGI (SNB-75 CNS): > 100 µM
TGI (UACC-62 melanoma): 37.3 µM
TGI (SK-MEL-2 melanoma): 33.1 µM
TGI (SW-620 colon): 58.6 µM
TGI (HS 578T breast): 37.2 µM

Cc1ccc(-n2cc(-c3ccc(Cl)cc3)c(C#N)c2N)cc1
TGI (DU-145 prostate): 71.4 µM
TGI (OVCAR-5 ovarian): 30.6 µM
TGI (A549 NSCLC): 43.2 µM
TGI (SNB-75 CNS): 47.9 µM
TGI (UACC-62 melanoma): 29.9 µM
TGI (SK-MEL-2 melanoma): 29.4 µM
TGI (HCT-116 colon): 27.1 µM
TGI (SW-620 colon): 26 µM
TGI (HS 578T breast): 17.2 µM

Cc1[nH]c2ccccc2c1C1=CC(=O)N(c2ccccc2)C1=O
TGI (DU-145 prostate): 52.5 µM
TGI (OVCAR-5 ovarian): > 100 µM
TGI (A549 NSCLC): > 100 µM
TGI (UACC-62 melanoma): 26.9 µM
TGI (SK-MEL-2 melanoma): 31.5 µM
TGI (HCT-116 colon): 22.7 µM
TGI (SW-620 colon): 37.8 µM
TGI (HS 578T breast): 43.5 µM

C(=N/NC1=NCCN1)/c1c2ccccc2c(/C=N\NC2=NCCN2)c2ccccc12
TGI (KM12 colon): 0.816 µM and 0.96 µM and 2 µM
GI50 (DU-145 prostate): 0.0878 µM
TGI (DU-145 prostate): 0.623 µM and 3.43 µM
TGI (OVCAR-5 ovarian): 1.38 µM and 0.95 µM and 0.793 µM
TGI (A549 NSCLC): 0.258 µM and 1.37 µM and 1.12 µM
TGI (SNB-75 CNS): 0.054 µM and 0.426 µM and 0.44 µM
TGI (UACC-62 melanoma): 0.274 µM and 0.425 µM and 0.242 µM
TGI (SK-MEL-2 melanoma): 0.271 µM and 0.747 µM and 0.422 µM
TGI (HCT-116 colon): 0.468 µM and 1.18 µM and 1.21 µM
GI50 (HS 578T breast): 0.0844 µM
TGI (HS 578T breast): 0.262 µM and 0.591 µM

COC1C(OC(N)=O)C(O)C(Oc2ccc3c(O)c(NC(=O)c4ccc(O)c(CC=C(C)C)c4)c(=O)oc3c2C)OC1(C)C (stereo not given)
TGI (KM12 colon): > 100 µM
TGI (DU-145 prostate): > 100 µM
TGI (OVCAR-5 ovarian): > 100 µM
TGI (A549 NSCLC): > 100 µM
TGI (SNB-75 CNS): > 100 µM
TGI (UACC-62 melanoma): > 100 µM
TGI (SK-MEL-2 melanoma): > 100 µM
TGI (HCT-116 colon): > 100 µM
TGI (SW-620 colon): > 100 µM

Cc1ccc(F)c2c(=O)cc(-c3ccccc3)[nH]c12
TGI (KM12 colon): > 100 µM
TGI (OVCAR-5 ovarian): > 100 µM
TGI (A549 NSCLC): > 100 µM
TGI (SNB-75 CNS): > 100 µM
TGI (UACC-62 melanoma): > 100 µM
TGI (SK-MEL-2 melanoma): > 100 µM
TGI (HCT-116 colon): > 100 µM
TGI (SW-620 colon): > 100 µM
